Reference: ChEMBL document CHEMBL5696442, “Discovery of type II inhibitors of TGFβ-activated kinase 1 (TAK1) and mitogen-activated protein kinase kinase kinase kinase 2 (MAP4K2)” (J Med Chem, 2015)
Activity calls are given as the source filed them. The rule behind the calls is not given here.

Key:
[1] = target: Casein kinase I isoform gamma-3 (Homo sapiens) (UniProt Q9Y6M4); experiment: Inhibition of CSNK1G3 (unknown origin) at 10 uM by Ambit Kinomescan binding assay
[2] = target: Fibroblast growth factor receptor 3 (Homo sapiens) (UniProt P22607); experiment: Inhibition of FGFR3 (unknown origin) at 10 uM by Ambit Kinomescan binding assay relative to control
[3] = target: Mitogen-activated protein kinase 9 (Homo sapiens, UniProt P45984); experiment: Inhibition of JNK2 (unknown origin) at 10 uM by Ambit Kinomescan binding assay relative to control
[4] = target: T1, Serine/threonine-protein kinase STK11 (Homo sapiens) (UniProt Q15831); experiment: Inhibition of LKB1 (unknown origin) at 10 uM by Ambit Kinomescan binding assay
T1 sequence (whole entry): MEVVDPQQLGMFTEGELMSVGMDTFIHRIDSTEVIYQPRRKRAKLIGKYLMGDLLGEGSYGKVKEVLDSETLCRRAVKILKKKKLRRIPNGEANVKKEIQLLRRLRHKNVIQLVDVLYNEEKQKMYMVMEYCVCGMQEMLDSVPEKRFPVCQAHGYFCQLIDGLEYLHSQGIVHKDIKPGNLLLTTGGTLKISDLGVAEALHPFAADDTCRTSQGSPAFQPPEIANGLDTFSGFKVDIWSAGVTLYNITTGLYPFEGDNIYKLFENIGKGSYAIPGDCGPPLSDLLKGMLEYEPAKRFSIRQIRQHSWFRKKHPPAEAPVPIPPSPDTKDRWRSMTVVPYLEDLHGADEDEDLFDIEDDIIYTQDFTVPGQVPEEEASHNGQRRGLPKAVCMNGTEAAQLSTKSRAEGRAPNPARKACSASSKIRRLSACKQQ

[5] = target: Serine/threonine-protein kinase MARK2 (Homo sapiens) (UniProt Q7KZI7); experiment: Inhibition of MARK2 (unknown origin) at 10 uM by Ambit Kinomescan binding assay
[6] = target: T2, Dual specificity mitogen-activated protein kinase kinase 6 (Homo sapiens) (UniProt P52564); experiment: Inhibition of MEK6 (unknown origin) at 10 uM by Ambit Kinomescan binding assay
T2 sequence (whole entry): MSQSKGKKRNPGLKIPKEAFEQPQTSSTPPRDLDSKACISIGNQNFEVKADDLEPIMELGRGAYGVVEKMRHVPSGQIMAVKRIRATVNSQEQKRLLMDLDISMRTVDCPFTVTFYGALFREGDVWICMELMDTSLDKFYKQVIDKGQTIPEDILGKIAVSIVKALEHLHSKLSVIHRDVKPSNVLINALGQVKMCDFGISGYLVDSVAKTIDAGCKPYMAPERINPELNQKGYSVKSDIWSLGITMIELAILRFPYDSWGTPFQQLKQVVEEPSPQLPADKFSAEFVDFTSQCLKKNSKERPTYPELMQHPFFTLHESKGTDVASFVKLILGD

[7] = target: Cyclin-dependent kinase 14 (Homo sapiens) (UniProt O94921); experiment: Inhibition of PFTK1 (unknown origin) at 10 uM by Ambit Kinomescan binding assay relative to control
[8] = target: Interferon-induced, double-stranded RNA-activated protein kinase (Homo sapiens) (UniProt P19525); experiment: Inhibition of PRKR (unknown origin) at 10 uM by Ambit Kinomescan binding assay
[9] = target: Casein kinase I isoform epsilon (Homo sapiens) (UniProt P49674); experiment: Inhibition of CK1epsilon Lys2 labeling site in human A-375 cells at 0.5 uM by KiNativ Profiling analysis relative to control; type: cell-based
[10] = target: TRAF2 and NCK-interacting protein kinase (Homo sapiens) (UniProt Q9UKE5); experiment: Inhibition of ZC2/TNIK K2 labeling site in human Huh-7 cells at 10 uM by KiNativ Profiling analysis relative to control; type: cell-based
[11] = target: Cyclin-dependent kinase 5 (Homo sapiens) (UniProt Q00535); experiment: Inhibition of CDK5 K2 labeling site harbouring DLKPQNLLINR in human Huh-7 cells at 10 uM by KiNativ Profiling analysis relative to control; type: cell-based
[12] = target: T3, Serine/threonine-protein kinase ULK3 (Homo sapiens) (UniProt Q6PHR2); experiment: Inhibition of ULK3 (unknown origin) at 10 uM by Ambit Kinomescan binding assay relative to control; values are per cent of control
T3 sequence (whole entry): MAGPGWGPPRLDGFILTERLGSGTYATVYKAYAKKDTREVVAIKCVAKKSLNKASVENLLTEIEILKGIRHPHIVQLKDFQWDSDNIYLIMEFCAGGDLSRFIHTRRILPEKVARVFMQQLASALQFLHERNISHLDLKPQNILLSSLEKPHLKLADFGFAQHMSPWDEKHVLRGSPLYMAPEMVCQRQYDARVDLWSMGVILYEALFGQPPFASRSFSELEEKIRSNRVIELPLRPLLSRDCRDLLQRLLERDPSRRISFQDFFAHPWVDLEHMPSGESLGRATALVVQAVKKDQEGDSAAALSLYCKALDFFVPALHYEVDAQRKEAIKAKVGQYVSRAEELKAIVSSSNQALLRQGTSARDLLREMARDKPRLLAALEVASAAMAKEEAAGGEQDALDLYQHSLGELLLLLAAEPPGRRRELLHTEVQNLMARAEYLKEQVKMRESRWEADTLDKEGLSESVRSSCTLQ

[13] = target: Serine/threonine-protein kinase DCLK1 (Homo sapiens) (UniProt O15075); experiment: Inhibition of DCAMKL1 (unknown origin) at 1 uM by Ambit Kinomescan binding assay relative to control
[14] = target: Serine/threonine-protein kinase Chk2 (Homo sapiens) (UniProt O96017); experiment: Inhibition of CHK2 Lys1 labeling site in human A-375 cells at 0.5 uM by KiNativ Profiling analysis relative to control; type: cell-based
[15] = target: Tyrosine-protein kinase ABL2 (Homo sapiens, UniProt P42684); experiment: Inhibition of ABL2 (unknown origin) at 1 uM by Ambit Kinomescan binding assay relative to control; values are per cent of control
[16] = target: Cyclin-dependent kinase-like 3 (Homo sapiens) (UniProt Q8IVW4); experiment: Inhibition of CDKL3 (unknown origin) at 1 uM by Ambit Kinomescan binding assay relative to control; values are per cent of control
[17] = target: Glycogen synthase kinase-3 beta (Homo sapiens) (UniProt P49841); experiment: Inhibition of GSK3B Lys2 labeling site in human Huh-7 cell lysate at 1 uM by KiNativ Profiling analysis relative to control; type: subcellular
[18] = Inhibition of p70S6K ATP labeling site in human Huh-7 cell lysate at 1 uM by KiNativ Profiling analysis relative to control; conditions: condition cancer
[19] = Inhibition of KHS1 Lys2 labeling site harbouring DIKGANILLTDHGDVKLADFGVAAK in human Huh-7 cells at 1 uM by KiNativ Profiling analysis relative to control; conditions: condition cancer
[20] = target: Serine/threonine-protein kinase 4 (Homo sapiens) (UniProt Q13043); experiment: Inhibition of MST1 Lys2 labeling site harbouring IHRDIKAGNILLNTEGHAK in human Huh-7 cell lysate at 1 uM by KiNativ Profiling analysis relative to control
Serine/threonine-protein kinase 4 (Homo sapiens), sequence (Q13043 whole entry, looked up): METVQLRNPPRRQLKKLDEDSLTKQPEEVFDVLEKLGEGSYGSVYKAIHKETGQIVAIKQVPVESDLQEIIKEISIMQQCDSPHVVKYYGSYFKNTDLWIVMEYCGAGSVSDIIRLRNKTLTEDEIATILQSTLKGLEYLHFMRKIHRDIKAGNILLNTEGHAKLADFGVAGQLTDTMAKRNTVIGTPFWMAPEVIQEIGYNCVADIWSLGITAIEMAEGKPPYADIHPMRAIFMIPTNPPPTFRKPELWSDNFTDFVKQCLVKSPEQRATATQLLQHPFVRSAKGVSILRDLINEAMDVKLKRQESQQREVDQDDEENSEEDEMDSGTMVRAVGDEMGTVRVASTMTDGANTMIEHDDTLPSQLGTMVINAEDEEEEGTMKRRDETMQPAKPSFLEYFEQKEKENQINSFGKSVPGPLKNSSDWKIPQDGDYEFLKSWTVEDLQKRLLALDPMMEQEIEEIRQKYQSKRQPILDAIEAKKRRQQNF

Serine/threonine-protein kinase Chk2 (Homo sapiens), sequence (O96017 whole entry): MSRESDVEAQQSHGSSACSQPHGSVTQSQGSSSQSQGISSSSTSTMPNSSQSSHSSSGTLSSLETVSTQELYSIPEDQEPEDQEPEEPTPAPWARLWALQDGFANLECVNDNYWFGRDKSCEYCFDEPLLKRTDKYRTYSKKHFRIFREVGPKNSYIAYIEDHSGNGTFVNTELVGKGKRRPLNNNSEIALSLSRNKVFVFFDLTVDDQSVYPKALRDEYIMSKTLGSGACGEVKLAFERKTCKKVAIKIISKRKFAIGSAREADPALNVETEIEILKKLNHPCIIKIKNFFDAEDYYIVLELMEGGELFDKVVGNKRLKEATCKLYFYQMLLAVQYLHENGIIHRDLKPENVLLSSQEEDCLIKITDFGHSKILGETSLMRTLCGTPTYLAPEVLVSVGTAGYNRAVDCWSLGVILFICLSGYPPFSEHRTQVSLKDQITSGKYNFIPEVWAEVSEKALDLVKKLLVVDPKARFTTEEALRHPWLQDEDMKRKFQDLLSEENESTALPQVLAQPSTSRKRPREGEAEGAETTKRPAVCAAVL
Cyclin-dependent kinase 5 (Homo sapiens), sequence (Q00535 whole entry, looked up): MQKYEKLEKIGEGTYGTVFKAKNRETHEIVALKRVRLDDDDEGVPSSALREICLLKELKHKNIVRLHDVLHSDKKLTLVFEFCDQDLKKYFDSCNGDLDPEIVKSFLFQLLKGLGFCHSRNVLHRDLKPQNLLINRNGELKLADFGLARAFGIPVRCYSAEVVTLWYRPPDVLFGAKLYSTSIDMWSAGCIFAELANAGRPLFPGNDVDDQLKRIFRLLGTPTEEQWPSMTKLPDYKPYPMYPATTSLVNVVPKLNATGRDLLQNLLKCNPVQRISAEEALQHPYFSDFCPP
Mitogen-activated protein kinase 9, sequence (P45984 whole entry, looked up): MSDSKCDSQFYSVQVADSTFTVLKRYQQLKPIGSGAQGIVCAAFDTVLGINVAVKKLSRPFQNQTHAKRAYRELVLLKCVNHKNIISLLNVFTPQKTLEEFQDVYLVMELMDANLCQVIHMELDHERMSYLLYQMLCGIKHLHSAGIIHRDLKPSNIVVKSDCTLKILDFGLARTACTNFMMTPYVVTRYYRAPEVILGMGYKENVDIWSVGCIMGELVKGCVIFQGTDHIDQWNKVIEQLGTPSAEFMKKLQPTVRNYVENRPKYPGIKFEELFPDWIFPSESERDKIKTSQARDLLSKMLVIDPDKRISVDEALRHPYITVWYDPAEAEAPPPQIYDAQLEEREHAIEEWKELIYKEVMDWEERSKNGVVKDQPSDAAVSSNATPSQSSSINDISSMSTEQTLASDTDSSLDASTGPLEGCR
Casein kinase I isoform gamma-3 (Homo sapiens), sequence (Q9Y6M4 whole entry, looked up, canonical isoform): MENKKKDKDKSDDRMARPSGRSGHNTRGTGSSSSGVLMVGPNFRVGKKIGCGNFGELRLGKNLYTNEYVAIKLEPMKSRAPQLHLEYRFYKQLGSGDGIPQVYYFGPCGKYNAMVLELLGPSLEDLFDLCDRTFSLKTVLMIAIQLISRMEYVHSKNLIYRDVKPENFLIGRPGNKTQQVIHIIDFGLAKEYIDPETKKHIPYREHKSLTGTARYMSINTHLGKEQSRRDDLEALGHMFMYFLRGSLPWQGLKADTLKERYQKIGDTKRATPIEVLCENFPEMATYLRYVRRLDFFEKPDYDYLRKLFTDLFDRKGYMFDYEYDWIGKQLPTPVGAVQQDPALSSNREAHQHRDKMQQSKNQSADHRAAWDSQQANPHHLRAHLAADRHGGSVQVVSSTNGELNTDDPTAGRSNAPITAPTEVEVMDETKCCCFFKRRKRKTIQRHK
Serine/threonine-protein kinase MARK2 (Homo sapiens), sequence (Q7KZI7 whole entry): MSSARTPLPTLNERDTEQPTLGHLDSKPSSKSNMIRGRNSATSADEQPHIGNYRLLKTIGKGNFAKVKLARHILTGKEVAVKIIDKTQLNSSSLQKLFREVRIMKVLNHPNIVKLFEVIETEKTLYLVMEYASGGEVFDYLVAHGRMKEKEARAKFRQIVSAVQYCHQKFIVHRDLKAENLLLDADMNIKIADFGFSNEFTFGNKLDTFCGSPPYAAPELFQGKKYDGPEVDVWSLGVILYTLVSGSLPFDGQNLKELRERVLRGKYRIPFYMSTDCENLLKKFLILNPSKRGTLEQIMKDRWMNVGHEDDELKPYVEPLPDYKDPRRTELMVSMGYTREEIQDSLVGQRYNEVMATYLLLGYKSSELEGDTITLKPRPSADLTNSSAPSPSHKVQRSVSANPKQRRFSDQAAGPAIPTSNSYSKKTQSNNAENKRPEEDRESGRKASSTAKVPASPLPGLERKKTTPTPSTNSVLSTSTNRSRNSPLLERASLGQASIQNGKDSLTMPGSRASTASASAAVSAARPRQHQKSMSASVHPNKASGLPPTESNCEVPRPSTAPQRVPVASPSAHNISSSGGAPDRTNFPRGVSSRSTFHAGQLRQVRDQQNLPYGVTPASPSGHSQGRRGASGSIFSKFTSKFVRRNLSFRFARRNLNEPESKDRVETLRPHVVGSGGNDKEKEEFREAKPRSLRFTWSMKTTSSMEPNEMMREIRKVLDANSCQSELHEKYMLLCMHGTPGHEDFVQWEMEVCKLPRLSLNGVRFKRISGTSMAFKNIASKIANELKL
Glycogen synthase kinase-3 beta (Homo sapiens), sequence (P49841 whole entry, looked up): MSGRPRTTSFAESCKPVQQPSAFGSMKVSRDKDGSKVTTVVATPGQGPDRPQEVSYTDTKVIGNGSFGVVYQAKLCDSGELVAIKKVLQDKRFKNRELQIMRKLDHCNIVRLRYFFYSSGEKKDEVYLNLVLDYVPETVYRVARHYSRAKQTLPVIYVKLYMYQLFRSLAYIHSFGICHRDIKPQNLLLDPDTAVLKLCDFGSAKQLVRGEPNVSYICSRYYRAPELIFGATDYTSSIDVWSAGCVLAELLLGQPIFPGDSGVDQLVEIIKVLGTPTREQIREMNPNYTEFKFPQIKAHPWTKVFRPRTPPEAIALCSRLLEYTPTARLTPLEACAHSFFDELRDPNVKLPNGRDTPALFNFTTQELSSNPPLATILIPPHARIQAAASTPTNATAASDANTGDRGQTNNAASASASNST
Casein kinase I isoform epsilon (Homo sapiens), sequence (P49674 whole entry, looked up, canonical isoform): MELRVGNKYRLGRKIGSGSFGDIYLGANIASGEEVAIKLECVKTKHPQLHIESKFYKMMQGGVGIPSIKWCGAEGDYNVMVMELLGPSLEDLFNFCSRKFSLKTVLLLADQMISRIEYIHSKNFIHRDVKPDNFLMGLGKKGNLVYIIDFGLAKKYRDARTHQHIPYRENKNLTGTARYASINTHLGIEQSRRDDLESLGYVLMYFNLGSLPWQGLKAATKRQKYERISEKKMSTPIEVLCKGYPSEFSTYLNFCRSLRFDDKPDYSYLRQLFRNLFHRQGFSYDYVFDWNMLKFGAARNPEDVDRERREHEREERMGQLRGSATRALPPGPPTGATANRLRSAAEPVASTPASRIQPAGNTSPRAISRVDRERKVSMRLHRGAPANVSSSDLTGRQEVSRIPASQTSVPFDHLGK
Interferon-induced, double-stranded RNA-activated protein kinase (Homo sapiens), sequence (P19525 whole entry, canonical isoform): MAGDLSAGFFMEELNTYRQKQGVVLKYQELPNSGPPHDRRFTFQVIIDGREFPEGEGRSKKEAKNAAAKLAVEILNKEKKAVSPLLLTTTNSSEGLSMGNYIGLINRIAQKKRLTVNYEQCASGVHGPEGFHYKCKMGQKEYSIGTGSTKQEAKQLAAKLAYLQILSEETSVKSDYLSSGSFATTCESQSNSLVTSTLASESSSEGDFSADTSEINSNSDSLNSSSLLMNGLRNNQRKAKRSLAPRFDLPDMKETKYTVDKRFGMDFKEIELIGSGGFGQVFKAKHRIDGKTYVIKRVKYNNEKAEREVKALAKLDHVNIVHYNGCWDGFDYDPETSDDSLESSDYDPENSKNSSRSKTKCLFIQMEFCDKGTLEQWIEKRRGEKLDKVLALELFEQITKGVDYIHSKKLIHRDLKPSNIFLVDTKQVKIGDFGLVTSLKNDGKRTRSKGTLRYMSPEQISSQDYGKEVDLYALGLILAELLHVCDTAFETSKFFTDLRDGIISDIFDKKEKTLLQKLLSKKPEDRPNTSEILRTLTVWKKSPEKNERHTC
Cyclin-dependent kinase 14 (Homo sapiens), sequence (O94921 whole entry): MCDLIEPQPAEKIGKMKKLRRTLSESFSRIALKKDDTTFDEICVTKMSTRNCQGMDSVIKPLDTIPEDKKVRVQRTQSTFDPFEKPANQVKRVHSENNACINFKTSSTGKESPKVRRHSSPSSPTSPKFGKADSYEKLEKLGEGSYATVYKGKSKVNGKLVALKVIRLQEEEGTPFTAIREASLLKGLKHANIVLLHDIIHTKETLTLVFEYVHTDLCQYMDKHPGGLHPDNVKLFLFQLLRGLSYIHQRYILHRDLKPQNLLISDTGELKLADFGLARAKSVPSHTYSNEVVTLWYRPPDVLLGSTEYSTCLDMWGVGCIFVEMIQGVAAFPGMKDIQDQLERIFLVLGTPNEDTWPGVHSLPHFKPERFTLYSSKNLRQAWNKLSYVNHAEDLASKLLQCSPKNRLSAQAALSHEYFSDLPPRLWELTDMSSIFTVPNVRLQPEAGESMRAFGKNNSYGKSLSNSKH

For CCN1CCN(Cc2ccc(NC(=O)c3ccc(C)c(Oc4ccnc5[nH]ccc45)c3)cc2C(F)(F)F)CC1, the inhibition [1] was “inactive”, the inhibition [2] was 9.4% and the inhibition [3] was 0%. For the same molecule, the inhibition [4] was “inactive”, the inhibition [5] was “inactive” and the inhibition [6] was “inactive”. For the same molecule, the inhibition [7] was 0.4%, the inhibition [8] was “inactive” and the inhibition [9] was 3.3%. The inhibition [10] was 72.6%, the inhibition [11] was -6.3% and the residual activity [12] was 0.1%.
Work on CCN1CCN(Cc2ccc(NC(=O)c3ccc(C)c(/C=C/c4cnc5[nH]ccc5c4OC)c3)cc2C(F)(F)F)CC1 yielded an inhibition [13] of 100%, an inhibition [14] of -4.8% and a % of control [15] of 0.7%. For the same molecule, the residual activity [16] was 50%.
Work on CNc1cc(Oc2cc(C(=O)Nc3cc(N4CCN(C)CC4)cc(C(F)(F)F)c3)ccc2C)ncn1 yielded an inhibition [17] of 6%, an inhibition at 1 µM [18] of 2.8% and an inhibition at 1 µM [19] of 19.8%. The inhibition [20] was 14.4%.
